US9248124B2, “Use of inhibitors of IκB kinase for the treatment of cancer” (Millennium Pharmaceuticals, Inc., priority 2001, dated 2016)

Experiments:
Format in all cases: cell-based, human
MM.1S cells = test: DNA synthesis ([3H]-TdR uptake) in MM.1S cells with Dex, IL-6, Thal or IMiD3; conditions: 48 h
Procedure: (§1) Proliferation was measured as previously described (Hideshima et al., Blood 96:2943 (2000)). MM cells (3×10^4 cells/well) were incubated in 96-well culture plates (Costar, Cambridge, Mass.) in the presence of media, PS-341, compound 1 and/or Dex or recombinant human IL-6 (Genetics Institute, Cambridge, Mass.) for 48 h at 37° C. DNA synthesis was measured by [^3H]-thymidine ([^3H]-TdR, NEN Products, Boston, Mass.) uptake. Cells were pulsed with [^3H]TdR (0.5 μCi/well) during the last 8 h of 48 h cultures. All experiments were performed in triplicate.

IL-6 secretion in BMSCs = test: IL-6 secretion in BMSC cultures with or without MM.1S cells (ELISA); conditions: 0.4-10 μM, 48 h, dose dependent; FIG. 12A
Description: BM specimens were obtained from patients with MM. Mononuclear cells (MNCs) separated by Ficoll-Hipaque density sedimentation were used to established long-term BM cultures, as previously described (Uchiyama et al., Blood 82:3712-3720 (1993)). When an adherent cell monolayer had developed, cells were harvested in Hank's Buffered Saline Solution (HBSS) containing 0.25% trypsin and 0.02% EDTA, washed, and collected by centrifugation.
(§2) To evaluate growth stimulation and signaling in MM cells adherent to BMSCs, 3×10^4 MM.1S cells were cultured in BMSC coated 96-well plates for 48 h, in the presence or absence of compound 1. DNA synthesis was measured as described above. The Duoset ELISA (R&D System) was used to measure IL-6 in supernatants of 48 h cultures of BMSCs with or without MM.1S cells, in the presence or absence of compound 1.

[1] = tested on: IκBα phosphorylation and degradation in MM.1S cells; test: Immunoblot of IκBα phosphorylation and degradation triggered by TNFα in MM.1S cells
Procedure: (§3) MM cells were cultured with PS-341 or compound 1; harvested; washed; and lysed using lysis buffer: 50 mM Tris-HCl (pH 7.4), 150 mM NaCl, 1% NP-40, 5 mM EDTA, 5 mM NaF, 2 mM Na3VO4, 1 mM PMSF, 5 μg/mL leupeptin, and 5 μg/mL aprotinin. For detection of phospho-IκBα, IκBα, phospho-MAPK, phospho-STAT3, ERK2 or alpha-tubulin, cell lysates were subjected SDS-PAGE, transferred to PVDF membrane (Bio-Rad Laboratories, Hercules, Calif.), and immunoblotted with anti-phospho-IκBα, -IκBα, -phospho-MAPK, or -phospho-STAT3 Abs (Cell Signaling, Beverly, Mass.), and anti-alpha-tubulin (Sigma) Abs.
Inhibition of IκBα phosphorylation by compound 1 was assayed in MM.1S and patient MM cells triggered by TNFα. […] To study the dose-dependent effect of compound 1, MM.1S cells were pre-treated with 1.25-40 μM compound 1 for 90 min, and then stimulated by TNFα (5 ng/mL).
The effect of Dex, compound 1, PS-341 and/or IL-6 on TNFα induced phosphorylation of IκBα in MM.1S cells was next examined. […] In contrast compound 1, in the presence or absence of IL-6, inhibits phosphorylation of IκBα. Dex inhibits TNFα-induced degradation of IκBα, whereas IL-6 blocks this effect. Both PS-341 and compound 1 inhibit degradation of IκBα, in the presence or absence of IL-6.

[2] = tested on: MM.1S cells adherent to BMSCs; test: Paracrine MM.1S cell growth on BMSCs ([3H]-TdR uptake); conditions: 0.4-10 μM, 48 h, dose dependent; FIG. 12B
Procedure: as §1, §2

[3] = tested on: IκBα phosphorylation and degradation in patient MM cells; test: Immunoblot of IκBα phosphorylation and degradation triggered by TNFα in patient cells; conditions: 10 μM for 90 min, TNFα 5 ng/mL, FIG. 1C
Procedure: Dex-sensitive (MM.1S) human MM cell line was kindly provided by Dr. Steven Rosen (Northwestern University, Chicago, Ill.). RPMI8226 and U266 human MM cells were obtained from American Type Culture Collection (Rockville, Md.). All MM cell lines cultured in RPMI-1640 containing 10% fetal bovine serum (FBS, Sigma Chemical Co., St. Louis, Mo.), […], 100 U/mL penicillin (Pen) and 100 μg/mL streptomycin (Strep) (GIBCO, Grand Island, N.Y.). Patient MM cells were purified from patient BM aspirates using RosetteSep separation system (StemCell Technologies, Vancouver, Canada). The purity of MM cells was confirmed by flow cytometry using PE-conjugated anti-CD138 antibody (Beckton Dickinson Co.).
as §3
Inhibition of IκBα phosphorylation by compound 1 was assayed in MM.1S and patient MM cells triggered by TNFα. […]

O=C(Nc1cc(Cl)cc2c1[nH]c1cnccc12)c1cccnc1 [compound 1, N-(6-chloro-9H-β-carbolin-8-yl)-nicotinamide]
inhibitory effect of IL-6 against IMiD3 (MM.1S cells; compound 1 10 μM, IL-6 20 ng/mL, FIG. 9): neutralized | protective effect of IL-6 on Dex-induced growth inhibition (MM.1S cells; compound 1 0.4-10 μM, Dex 0.1 μM, IL-6 50 ng/mL, FIG. 8C): abrogated | constitutive and IL-6 induced DNA synthesis in MM.1S cells (MM.1S cells; compound 1 1.5-12.5 μM, IL-6 0.5-50 ng/mL, dose dependent, FIG. 8B): abrogated | effect of compound 1 on Dex inhibition of proliferation (MM.1S cells; compound 1 1.5-50 μM with Dex, FIG. 8A): did not enhance | constitutive secretion of IL-6 in BMSCs (IL-6 secretion in BMSCs): blocks | increased IL-6 secretion triggered by adhesion of MM.1S cells to BMSCs (IL-6 secretion in BMSCs): blocks | TNFα-induced phosphorylation of IκBα ([1]; Dex 1 μM 18 h, PS-341 5 μM 60 min, compound 1 10 μM 90 min, presence or absence of IL-6, TNFα 5 ng/mL 5 min, FIG. 7): inhibits | TNFα-induced degradation of IκBα ([1]; Dex 1 μM 18 h, PS-341 5 μM 60 min, compound 1 10 μM 90 min, TNFα 5 ng/mL 5 min, FIG. 7): inhibit | phosphorylation and degradation of IκBα ([1]; compound 1 pre-treatment 10 μM for 90 min, then TNFα 5 ng/mL, FIG. 1A): completely blocked | concentration at which phosphorylation of IκBα was completely inhibited ([1]; pre-treated with 1.25-40 μM for 90 min, then TNFα 5 ng/mL, FIG. 1B): ≥ 5 µM | increased MM.1S cell growth triggered by adherence to BMSCs [2]: inhibits | phosphorylation and degradation of IκBα triggered by TNFα [3]: inhibited
